# According to the supplement of paper PMC10307832:
# Key:
# Experiment in all cases: relative viability (nuclei count vs DMSO), 5 days (fraction); higher = more cells survive
# [1] = compound: C1CSC2=C(C(=O)N1)SC3=C2C=C(C=C3)O [kb NB 142-70] + CC(=O)c1c(C)c2cnc(Nc3ccc(N4CCNCC4)cn3)nc2n(C2CCCC2)c1=O [Palbociclib] (partner 0.5 µM)
# Method in brief: (§1)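 A single step with final 0.05% Triton X-100, 1% formaldehyde and 1 ug/ml Hoechst fixed the cells and stained nuclei 5 days after treatment. Lung cancer cell lines in 1536-well plates had been treated by pin tool the day after seeding with one drug alone or a fixed anchor-drug dose plus five library-drug doses (not always all listed) in √10 steps, and nuclei were counted on 4× images. Relative viability is the ratio of nuclei in treated wells to nuclei in vehicle wells, taken as the median of duplicate plates.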
# [2] = compound: NCC(=O)Nc1ccc(-n2nc(C(F)(F)F)cc2-c2ccc3c(ccc4ccccc43)c2)cc1 + COc1cc2c(Oc3ccc(NC(=O)C4(C(=O)Nc5ccc(F)cc5)CC4)cc3F)ccnc2cc1OCCCN1CCOCC1 [Foretinib] (partner 0.25 µM)
# Method in brief: as §1
# [3] = compound: NCC(=O)Nc1ccc(-n2nc(C(F)(F)F)cc2-c2ccc3c(ccc4ccccc43)c2)cc1 + Nc1nc2[nH]cc(CCc3ccc(C(=O)N[C@@H](CCC(=O)O)C(=O)O)cc3)c2c(=O)[nH]1 [Pemetrexed] (partner 0.2 µM)
# Method in brief: as §1
# [4] = compound: NCC(=O)Nc1ccc(-n2nc(C(F)(F)F)cc2-c2ccc3c(ccc4ccccc43)c2)cc1 + Cc1nc(Nc2ncc(C(=O)Nc3c(C)cccc3Cl)s2)cc(N2CCN(CCO)CC2)n1 [Dasatinib] (partner 0.075 µM)
# Method in brief: as §1
cell line,measurement,setting,value
UMC-11,relative viability,[1]; first compound 0.1 µM,0.322
same,relative viability,[1]; first compound 1 µM,0.344
same,relative viability,[1]; first compound 3.162 µM,0.324
same,relative viability,[2]; first compound 0.02 µM,0.974
same,relative viability,[2]; first compound 0.06325 µM,1.04
same,relative viability,[2]; first compound 0.2 µM,1.06
same,relative viability,[2]; first compound 0.6325 µM,1.01
same,relative viability,[2]; first compound 2 µM,1.11
same,relative viability,[3]; first compound 0.02 µM,0.835
same,relative viability,[3]; first compound 0.06325 µM,0.699
same,relative viability,[3]; first compound 0.2 µM,0.905
same,relative viability,[3]; first compound 0.6325 µM,0.853
same,relative viability,[3]; first compound 2 µM,0.759
same,relative viability,[4]; first compound 0.02 µM,0.426
same,relative viability,[4]; first compound 0.06325 µM,0.416
same,relative viability,[4]; first compound 0.2 µM,0.466
same,relative viability,[4]; first compound 0.6325 µM,0.432
same,relative viability,[4]; first compound 2 µM,0.42
